Assay results from patent US7183252B2, “Indole peptidomimetics as thrombin receptor antagonists” (Ortho-McNeil Pharmaceutical, Inc., priority 1999, dated 2007).
Where two headings read alike, the source gives them in different places.

What was measured:
gel-filtered platelets = test: In vitro inhibition of thrombin-induced gel-filtered platelet aggregation; type: cell-based; details: human gel-filtered platelets, agonist thrombin 50 μL of 1 unit/mL, read-out: Thrmb IC50 (Thrombin-induced aggregation of gel-filtered platelets)
Protocol: In Vitro Inhibition of Thrombin-Induced Gel-Filtered Platelet Aggregation Assay
The percentage of platelet aggregation is calculated as an increase in light transmission of compound-treated platelet concentrate vs. control-treated platelet concentrate. Human blood is obtained from drug free, normal donors in tubes containing 0.13M sodium citrate. Platelet rich plasma (PRP) is collected by centrifugation of whole blood at 200×g for 10 min at 25° C. The PRP (5 mL) is gel filtered through Sepharose 2B (bed volume 50 mL), and the platelet count is adjusted to 2×10^7 platelets per sample. The following constituents are added to a siliconized cuvette: concentrated platelet filtrate and Tyrode's buffer (0.14M NaCl, 0.0027M KCl, 0.012M NaHCO3, 0.76 mM Na2HPO4, 0.0055M glucose, 2 mg/mL BSA and 5.0 mM HEPES @ pH 7.4) in an amount equal to 350 μL 50 μL of 20 mM calcium and 50 μL of the test compound. Aggregation is monitored in a BIODATA aggregometer for the 3 min following the addition of agonist (thrombin 50 μL of 1 unit/mL).
(§1) Table 7 contains IC50 values (μM) of the compounds in a thrombin receptor binding assay, and IC50 values (μM) against platelet aggregation stimulated by thrombin.

[1] = target: T1, thrombin receptor (PAR-1) (Homo sapiens, UniProt P25116); test: In vitro thrombin receptor binding assay (CHRF membranes); details: tritiated 721-40 radioligand, read-out: Bndg IC50 (Thrombin receptor binding)
T1 construct: CHRF membranes (Jones, Biochim. Biophys. Acta 1992, 1136, 272) are thawed from −70° C; endogenous in cells; host or cells: CHRF cell membranes
T1 sequence (P25116 22-425): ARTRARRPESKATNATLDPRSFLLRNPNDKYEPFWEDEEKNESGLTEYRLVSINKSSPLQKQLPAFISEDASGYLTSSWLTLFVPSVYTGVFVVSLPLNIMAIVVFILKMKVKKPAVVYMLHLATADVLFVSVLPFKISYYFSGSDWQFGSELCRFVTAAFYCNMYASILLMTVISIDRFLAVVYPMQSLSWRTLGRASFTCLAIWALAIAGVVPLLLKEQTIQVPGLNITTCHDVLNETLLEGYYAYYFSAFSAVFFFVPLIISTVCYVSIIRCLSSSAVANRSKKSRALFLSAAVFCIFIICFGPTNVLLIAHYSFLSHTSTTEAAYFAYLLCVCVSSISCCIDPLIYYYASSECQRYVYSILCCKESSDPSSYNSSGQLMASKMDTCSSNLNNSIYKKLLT
Protocol: In Vitro Thrombin Receptor Binding Assay
CHRF membranes (Jones, Biochim. Biophys. Acta 1992, 1136, 272) are thawed from −70° C., centrifuged at maximum speed for 5 min, washed twice with binding buffer (50 mM HEPES containing 5 mM MgCl2 and 0.1% BSA), and re-suspended in binding buffer (25 μg/[…]). 100 μL of membranes are added to the 24-Wallac plates and delivered to the Tomtech apparatus. In a typical experiment, 6 μL of samples (from a 125 μg/mL intermediary plate, 20% DMSO) and 44 μL buffer are delivered to the plates (final conc. of compounds is 3.7 μg/mL, 0.6% DMSO). Similarly, 6 μL 20% DMSO and 44 μL buffer are delivered to both column 1 (NSB) and column 12 (TB). 10 μL Ser-pFPhe-Har-Leu-Har-Lys-Tyr-NH2 (721–40; 500 μM in deionized water) is added to column 1. 50 μL tritiated 721–40 (specific activity 46 Ci/mmol) is added to all the wells. The plates are mixed well for 20 seconds, incubated for 30 min,and then harvested with 10 mM HEPES/138 mM NaCl using the Skatron harvester. The filters (GF/C Brandel FPXLR 296) are presoaked 3 h in 0.5% polyethylenimine in HEPES/0.1M N-acetylglucosamine) are set in saran wrap and dried for 3 min in the microwave, and placed in sample bags (Wallac 1450-432). 4.5 mL scintillation fluid (Wallac, Betaplate Scint 1205-440) is added. The bags are sealed, placed in filter cassettes (Wallac 1450-104), and analyzed on the microbeta counter.
as §1

| SMILES | IC50 (gel-filtered platelets; Platelet) [nM] | IC50 [1] [nM] | IC50 (gel-filtered platelets) [nM] |
| --- | --- | --- | --- |
| CC(=N)NCCNC(=O)[C@H](CCNC(C)=N)NC(=O)[C@H](Cc1ccc(F)c(F)c1)NC(=O)Nc1ccc2c(CN3CCCC3)cn(Cc3c(Cl)cccc3Cl)c2c1 [Compound 140] | 740 | 120 |  |
| O=C(Nc1ccc2c(CN3CCCC3)cn(Cc3c(Cl)cccc3Cl)c2c1)N[C@@H](Cc1ccc(F)c(F)c1)C(=O)N[C@@H](CCCCNC(=O)c1cccnc1)C(=O)NCc1ccccc1 [Compound 68] | 4700 | 6500 |  |
| O=C(Nc1ccc2c(CN3CCCC3)cn(Cc3c(Cl)cccc3Cl)c2c1)N[C@@H](Cc1ccc(F)c(F)c1)C(=O)N[C@@H](Cc1ccncc1)C(=O)NCc1ccccc1 [Compound 105] | 640 | 7500 |  |
| NCC[C@H](NC(=O)[C@H](Cc1ccc(Cl)cc1)NC(=O)Nc1ccc2c(CN3CCCC3)cn(Cc3c(Cl)cccc3Cl)c2c1)C(=O)NCc1ccccc1 [Compound 78] | 1300 | 1500 |  |
| NCCC[C@H](NC(=O)[C@H](Cc1ccc(F)c(F)c1)NC(=O)Nc1ccc2c(CN3CCCC3)cn(Cc3c(Cl)cccc3Cl)c2c1)C(=O)NCc1ccc(Cl)c(Cl)c1 [Compound 112] | 930 | 2000 |  |
| NCCC[C@H](NC(=O)[C@H](Cc1ccc(F)c(F)c1)NC(=O)Nc1ccc2c(CN3CCCC3)cn(Cc3c(Cl)cccc3Cl)c2c1)C(=O)NCc1ccccc1 [Compound 66] | 240 | 1100 |  |
| NCCNC(=O)[C@H](Cc1ccncc1)NC(=O)[C@H](Cc1ccc(Cl)cc1)NC(=O)Nc1ccc2c(CN3CCCC3)cn(Cc3c(Cl)cccc3Cl)c2c1 [Compound 135, L-Alaninamide, 4-chloro-N-[[[1-[(2,6-dichlorophenyl)methyl]-3-(1-pyrrolidinylmethyl)-1H-indol-6-yl]amino]carbonyl]-L-phenylalanyl-N-(2-aminoethyl)-3-(4-pyridinyl)-] |  | 890 | 690 |
| NCC[C@H](NC(=O)[C@H](Cc1ccc(F)c(F)c1)NC(=O)Nc1cccc2c1c(CN1CCCC1)cn2Cc1c(Cl)cccc1Cl)C(=O)NCCN1CCCC1 [Compound 166] | 40300 | 2000 |  |
| CCCCN(CCCC)Cc1cn(Cc2ccccc2C)c2cc(NC(=O)N[C@@H](Cc3cc(F)cc(F)c3)C(=O)N[C@@H](CCCNC(=N)N)C(=O)NCc3ccccc3)ccc12 [Compound 58] | > 10000 | 1500 |  |
| N=C(N)NCCC[C@H](NC(=O)[C@H](Cc1ccc(F)cc1)NC(=O)Nc1ccc2c(CN3CCCC3)cn(Cc3ccc(F)cc3)c2c1)C(=O)NCc1ccccc1 [Compound 26] | 550 | 4300 |  |
| C[C@@H](CNC(=O)[C@H](CCCNC(=N)N)NC(=O)[C@H](Cc1ccc(F)c(F)c1)NC(=O)Nc1ccc2c(CN3CCCC3)cn(Cc3c(Cl)cccc3Cl)c2c1)c1ccccc1 [Compound 83] | 430 | 680 |  |
| CC(=O)NCCCC[C@H](NC(=O)[C@H](Cc1ccc(F)c(F)c1)NC(=O)Nc1ccc2c(CN3CCCC3)cn(Cc3c(Cl)cccc3Cl)c2c1)C(=O)NCc1ccccc1 [Compound 71] | 550 | 3000 |  |
| NCCC[C@H](NC(=O)[C@H](Cc1ccc(F)c(F)c1)NC(=O)Nc1ccc2c(CN3CCCC3)cn(Cc3c(Cl)cccc3Cl)c2c1)C(=O)NC1CCCC1 [Compound 125] | 430 | 660 |  |
| N=C(N)NCCC[C@H](NC(=O)[C@H](Cc1cccc(F)c1)NC(=O)Nc1ccc2c(CN3CCCC3)cn(Cc3c(Cl)cccc3Cl)c2c1)C(=O)NCc1ccccc1 [Compound 47] | 880 | 1200 |  |
| NCCC[C@H](NC(=O)[C@H](Cc1ccc(F)c(F)c1)NC(=O)Nc1ccc2c(CN3CCCC3)cn(Cc3c(Cl)cccc3Cl)c2c1)C(=O)NCc1ccncc1 [Compound 98] | 1800 | 2300 |  |
| N=C(N)NCCC[C@H](NC(=O)[C@H](Cc1cccc(F)c1)NC(=O)Nc1ccc2c(CN3CCCC3)cn(Cc3c(Cl)cccc3Cl)c2c1)C(=O)NCc1ccc(S(N)(=O)=O)cc1 [Compound 92] | 1300 | 1000 |  |
| N=C(N)NCCC[C@H](NC(=O)Nc1ccc2c(CN3CCCC3)cn(Cc3c(Cl)cccc3Cl)c2c1)C(=O)N[C@@H](Cc1ccc(F)c(F)c1)C(=O)NCc1ccccc1 [Compound 80] | 11300 | 5900 |  |
| CCOC(=O)N1CCC(NC(=O)[C@H](CCN)NC(=O)[C@H](Cc2ccc(F)c(F)c2)NC(=O)Nc2ccc3c(CN4CCCC4)cn(Cc4c(Cl)cccc4Cl)c3c2)CC1 [Compound 144] | 320 | 70 |  |
| N=C(N)NCCC[C@H](NC(=O)[C@H](Cc1ccc(F)c(F)c1)NC(=O)Nc1ccc2c(CN3CCCC3)cn(CC3CCCCC3)c2c1)C(=O)NCc1ccccc1 [Compound 74] | 2900 | 560 |  |
| CC(=N)NCCNC(=O)[C@H](Cc1ccncc1)NC(=O)[C@H](Cc1ccc(Cl)cc1)NC(=O)Nc1ccc2c(CN3CCCC3)cn(Cc3c(Cl)cccc3Cl)c2c1 [Compound 139] | 330 | 1000 |  |
| NCCNC(=O)[C@@H](Cc1ccncc1)NC(=O)[C@@H](Cc1ccc(F)c(F)c1)NC(=O)c1ccc2c(CN3CCCC3)cn(Cc3c(Cl)cccc3Cl)c2c1 [Compound 176] |  | 43200 | 45700 |
| Cc1cccc(Cn2cc(CN3CCCC3)c3ccc(NC(=O)N[C@@H](Cc4ccc(F)c(F)c4)C(=O)N[C@@H](Cc4cccs4)C(=O)NCCCN)cc32)c1 [Compound 153] | 790 | 27000 |  |
| N=C(N)NCCC[C@H](NC(=O)[C@H](Cc1cscn1)NC(=O)Nc1ccc2c(CN3CCCC3)cn(Cc3c(Cl)cccc3Cl)c2c1)C(=O)NCc1ccccc1 [Compound 53] | 1000 | 8800 |  |
| CCCN(CCC)Cc1cn(Cc2c(Cl)cccc2Cl)c2cc(NC(=O)N[C@@H](Cc3ccc(OC)cc3)C(=O)N[C@@H](CCCNC(=N)N)C(=O)NCc3ccccc3)ccc12 [Compound 41] | 4800 | 10400 |  |
| COc1ccc(C[C@H](NC(=O)Nc2ccc3c(CN4CCCC4)cn(Cc4ccc(C(F)(F)F)cc4)c3c2)C(=O)N[C@@H](CCCNC(=N)N)C(=O)NCc2ccccc2)cc1 [Compound 18] | 14000 | 3700 |  |
| COc1ccc(C[C@H](NC(=O)Nc2ccc3c(CNC4CCCC4)cn(Cc4ccc(F)cc4)c3c2)C(=O)N[C@@H](CCCNC(=N)N)C(=O)NCc2ccccc2)cc1 [Compound 3] | 21400 | 10700 |  |
| NCCC[C@H](NC(=O)[C@H](Cc1ccc(F)c(F)c1)NC(=O)Nc1ccc2c(CN3CCCC3)cn(Cc3c(Cl)cccc3Cl)c2c1)C(=O)NCc1cccs1 [Compound 113] | 720 | 850 |  |
| NC(N)=NCCC[C@H](NC(=O)[C@H](Cc1ccc(F)c(F)c1)NC(=O)Nc1ccc2c(CN3CCCC3)cn(Cc3ccc(F)cc3)c2c1)C(=O)NCc1ccco1 [Compound 82] | 1500 | 310 |  |
| COc1ccc(CNC(=O)[C@H](CCCNC(=N)N)NC(=O)[C@H](Cc2ccc(F)c(F)c2)NC(=O)Nc2ccc3c(CN4CCCC4)cn(Cc4c(Cl)cccc4Cl)c3c2)cc1 [Compound 61] | 1400 | 300 |  |
| Cc1ccccc1Cn1cc(CN2CCCC2)c2ccc(NC(=O)N[C@@H](Cc3cccnc3)C(=O)N[C@@H](CCCNC(=N)N)C(=O)NCc3ccccc3)cc21 [Compound 31] | > 10000 | 8400 |  |
